Test results published in US20250250231A1, “NOVEL SUBSTITUTED 4-AMINO-4-OXO-BUT-2-ENYL DERIVATIVES, PROCESSES FOR THEIR PREPARATION AND THERAPEUTIC USES THEREOF” (SANOFI, priority 2022, published 2025).

Tests used:
Assay type in all cases: cell-based
MCF7-WT cells = assay: In vitro anti-proliferation assay (CellTiter-Glo viability), MCF7-WT cells; settings: Homo sapiens, MCF7, 192 h, MCF7-WT cells supplemented with 0.1 nM b-estradiol; viability on day 8; relative IC50
Protocol: (§1) Test: In vitro anti-proliferation assay
(§2) Said test involves measuring the in vitro anti-proliferation activity of the compounds of the Table 1a.
(§3) The measurements of the anti-proliferation activities were made using MCF7-WT (ATCC), MCF7-Y537S and HCC1428-LTED cells as described hereunder.
(§4) On Day 1, MCF7-WT and MCF7-Y537S (Mol Cancer Ther. 2021 20(2):250-262), and HCC1428-LTED (J Clin Invest. 2010; 120(7):2406-2413) cells, were seeded at 2000 (WT and LTED) and 500 (Y537S) cells/well in phenol red free IMEM (Corning, 110-026-CV) with 5% Charcoal stripped-FBS and incubated overnight 37° C. and 5% CO2.
(§5) On day 2, compounds were tested in triplicate in 10-point dose response (1:3 serial dilutions with a top concentration starting 300 nM); DMSO for upper limit (negative control) and staurosporine (1 uM) for lower limit (positive control) were also included. MCF7-WT cells were then supplemented with final 0.1 nM b-estradiol. After treating the cells, the assay plates were transferred back in the incubator at 37° C. and 5% CO2.
(§6) On day 8, cell viability was measured per vendor recommendations (CellTiter-Glo, Promega). Relative IC50 measurements were calculated as follow using a 4-parameter logistic derived from Levenburg Marquardt algorithm (IDBS XL Model 205 fit within A-base).

HCC1428-LTED cells = assay: In vitro anti-proliferation assay (CellTiter-Glo viability), HCC1428-LTED cells; settings: Homo sapiens, HCC1428, 192 h, viability on day 8, relative IC50, read-out: HCC 1428 IC50
Protocol: as §1, §2, §3, §4, §5, §6

MCF7-Y537S cells = assay: In vitro anti-proliferation assay (CellTiter-Glo viability), MCF7-Y537S cells; settings: Homo sapiens, MCF7, 192 h, viability on day 8, relative IC50
Protocol: as §1, §2, §3, §4, §5, §6

IC50 (MCF7-WT cells) [nM] | IC50 (HCC1428-LTED cells) [nM] | IC50 (MCF7-Y537S cells) [nM] | SMILES
41 | 1 | ≥ 500 | CN(C)C(=O)/C=C/CN1CC/C(=C/c2ccc(C3=C(c4ccc(Cl)cc4Cl)CCCc4cc(C(=O)O)ccc43)cc2)C1 [Compound 20, 8-(2,4-dichlorophenyl)-9-(4-((Z)-(1-((E)-4-(dimethylamino)-4-oxobut-2-en-1-yl)pyrrolidin-3-ylidene)methyl)phenyl)-6,7-dihydro-5H-benzo[7]annulene-3-carboxylic acid]
28 | 2.1 | ≥ 500 | CN(C)C(=O)/C=C/CN1CC(Nc2ccc(C3=C(c4ccc(Cl)cc4Cl)CCCc4cc(C(=O)O)ccc43)cc2)C1 [Compound 21, (E)-8-(2,4-dichlorophenyl)-9-(4-((1-(4-(dimethylamino)-4-oxobut-2-en-1-yl)azetidin-3-yl)amino)phenyl)-6,7-dihydro-5H-benzo[7]annulene-3-carboxylic acid]
11 | 0.6 | 184 | CN(C)C(=O)/C=C/CNCCOc1ccc(C2=C(c3ccc(Cl)cc3Cl)CCCc3cc(C(=O)O)ccc32)cc1 [Compound 22, (E)-8-(2,4-dichlorophenyl)-9-(4-(2-((4-(dimethylamino)-4-oxobut-2-en-1-yl)amino)ethoxy)phenyl)-6,7-dihydro-5H-benzo[7]annulene-3-carboxylic acid]
26 | 0.03 | 23 | CN(C)C(=O)/C=C/CN1CC[C@H](Oc2ccc(C3=C(c4ccc(Cl)cc4Cl)CCCc4cc(O)ccc43)cc2)C1 [Compound 23, (S,E)-4-(3-(4-(8-(2,4-dichlorophenyl)-3-hydroxy-6,7-dihydro-5H-benzo[7]annulen-9-yl)phenoxy)pyrrolidin-1-yl)-N,N-dimethylbut-2-enamide]
160 | 4.4 | ≥ 500 | CN(C)C(=O)/C=C/CN1CC[C@H](Oc2ccc(C3=C(c4ccc(Cl)cc4Cl)CCOc4cc(C(=O)O)ccc43)cc2)C1 [Compound 24, (S,E)-4-(2,4-dichlorophenyl)-5-(4-((1-(4-(dimethylamino)-4-oxobut-2-en-1-yl)pyrrolidin-3-yl)oxy)phenyl)-2,3-dihydrobenzo[b]oxepine-8-carboxylic acid]
300 | 17 | ≥ 500 | CN(C)C(=O)/C=C/CN1CC[C@H](Oc2ccc(C3=C(c4ccc(Cl)cc4Cl)CCc4cc(C(=O)O)ccc43)cc2)C1 [Compound 25, (S,E)-6-(2,4-dichlorophenyl)-5-(4-((1-(4-(dimethylamino)-4-oxobut-2-en-1-yl)pyrrolidin-3-yl)oxy)phenyl)-7,8-dihydronaphthalene-2-carboxylic acid]
21 | 0.4 | 193 | CN(C)C(=O)/C=C/CN1CC[C@H](Oc2ccc(C3=C(c4ccc(Cl)cc4Cl)CCCc4ccccc43)cc2)C1 [Compound 26, (S,E)-4-(3-(4-(8-(2,4-dichlorophenyl)-6,7-dihydro-5H-benzo[7]annulen-9-yl)phenoxy)pyrrolidin-1-yl)-N,N-dimethylbut-2-enamide]
2.9 | 0.02 | 33 | CN(C)C(=O)/C=C/CN1CC[C@H](Oc2ccc(C3=C(c4ccc(Cl)cc4Cl)CCSc4cc(O)ccc43)cc2)C1 [Compound 27, (S,E)-4-(3-(4-(4-(2,4-dichlorophenyl)-8-hydroxy-2,3-dihydrobenzo[b]thiepin-5-yl)phenoxy)pyrrolidin-1-yl)-N,N-dimethylbut-2-enamide]
